Among the data in article PMC9475553, “SHF Acts as a Novel Tumor Suppressor in Glioblastoma Multiforme by Disrupting STAT3 Dimerization” (Advanced Science, 2022) are Kd values, retold here.

No end group written: not given here.

The target of the test is immobilized STAT3 (Homo sapiens, UniProt P40763). As to the kind of experiment: Static adsorption equilibrium assay, immobilized STAT3. It is filed as binding. Particulars: immobilized STAT3 85 nmol g^−1 wet gel; peptide 2-20 µM in PBS, stirred 12 h; free peptide by NanoDrop absorbance 240 nm; Langmuir isotherm; mean ± SD; read-out: equilibrium dissociation constant KD. The source says:
Considering that the SH2 domain predominantly represents the inhibition of SHF on STAT3 dimerization and activity, we speculated that this domain may be an optional target for GBM suppression. To this end, we analyzed the mechanical interaction of SHF and STAT3. The structures of human SHF (aa265‐421) and STAT3 (aa130‐715). both of which spanned their respective SH2 domain. were simulated by Swiss‐Model server (https://swissmodel.expasy.org/). To simulate the interaction of SHF and STAT3, Discovery studio 2018 was employed to complete protein‐protein docking using ZDOCK as an initial stage. A rigid body molecular docking algorithm utilizing a fast Fourier transform (FFT) algorithm was used to further improve performance for searching in translational space. All the available structures from PDB were used to calculate the docking poses and the structures obtained were subjected to energy minimization filtration using the smart minimize algorithm (Max steps 200, RMS gradient 0.01). The highest resulting ZDock score was used as the appropriate conformational pose. […] Since these two spots are located closely to one another, the sequence spanning amino acids 388–421 was used as a peptide design master. To obtain a peptide with high internalization efficiency and a strong half‐life, we introduced a palmitic acid at the N‐terminus of the master sequence and amidated the C‐terminus. The designed peptide was named C16. A scrambled peptide containing a scrambled sequence targeting Spot1 was named SC and served as a negative control peptide. […] The static adsorption equilibrium experiment of immobilized STAT3 peptide was used to detect the binding rate of the synthesized peptide with STAT3 (Figure 7C). The concentration of immobilized STAT3 used was 85 nmol g^−1 wet gel. […] Thus, C16 acted as a powerful inhibitor of STAT3 dimerization and associated activity. Next, we determined the implication of C16 in tumor inhibition. […] A concentration of 25 uM was determined to be adequate for use in the subsequent experiments. […] Further, the impact of C16 on tumor propagation was examined in an intracranial xenograft model. U87 cells expressing luciferase were implanted into mouse brains. The mice were injected intraperitoneally (i.p.) with C16 or SC once every 2 days from the third day after cell transplantation. […] To investigate the effect of C16 on cell proliferation, EdU was injected 24 h prior to sacrifice.
Figure 7 Peptide derived from the STAT3‐binding sites of SHF is an effective GBM suppressive strategy. A) Binding model between SHF and STAT3 using ZDOCK server. […] B) IF staining determined the cell penetrability and nuclear‐localization of C16. U251 cells were incubated with C16 or SC for 2 h and performed IF staining using the indicated antibodies. Bars, 10 µm. C) The statical analysis of adsorption equilibrium assay detecting the binding of C16 and SC with recombinant STAT3. D) Pull‐down assay indicating C16 binds STAT3. GST‐STAT3 was incubated with C16 or SC for 2 h, and the pull‐down assay was performed using Anti‐His magnetic beads. E) IP assay showing the effect of C16 on STAT3 dimerization. 293T cells transfected with indicated vectors were incubated with C16 for 2 h. The relative quantification of STAT3 dimerization was listed. F) IP assay detecting the effect of C16 on the interaction of STAT3 and DNMT1. […] The relative quantification of STAT3/DNMT1 interaction was listed. […] The relative quantification of STAT3/DNMT1 interaction was listed. […]

immobilized STAT3, sequence (P40763 whole entry, the tested form may be a part): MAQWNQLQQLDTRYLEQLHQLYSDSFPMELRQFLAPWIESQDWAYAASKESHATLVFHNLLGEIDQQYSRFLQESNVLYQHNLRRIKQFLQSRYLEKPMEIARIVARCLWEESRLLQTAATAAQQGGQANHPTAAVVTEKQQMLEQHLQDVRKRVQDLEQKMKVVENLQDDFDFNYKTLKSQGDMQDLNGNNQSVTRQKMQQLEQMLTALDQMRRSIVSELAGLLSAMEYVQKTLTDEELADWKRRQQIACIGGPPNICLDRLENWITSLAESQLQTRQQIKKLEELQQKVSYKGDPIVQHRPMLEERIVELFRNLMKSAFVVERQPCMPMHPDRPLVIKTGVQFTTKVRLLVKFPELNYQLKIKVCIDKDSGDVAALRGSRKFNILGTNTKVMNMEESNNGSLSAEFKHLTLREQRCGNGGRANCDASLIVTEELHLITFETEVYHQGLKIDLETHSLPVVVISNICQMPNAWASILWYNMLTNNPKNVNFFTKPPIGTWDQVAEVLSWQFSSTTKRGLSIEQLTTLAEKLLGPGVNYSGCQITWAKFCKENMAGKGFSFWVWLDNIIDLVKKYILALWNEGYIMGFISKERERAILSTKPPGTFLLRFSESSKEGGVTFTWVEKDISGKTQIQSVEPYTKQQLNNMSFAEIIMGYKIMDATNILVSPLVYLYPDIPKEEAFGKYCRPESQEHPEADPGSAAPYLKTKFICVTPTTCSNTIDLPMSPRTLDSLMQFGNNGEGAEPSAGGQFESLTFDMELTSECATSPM

Consider “PASSNCEIVPMYHIRKLPIKGAEHMSLLYPVAIR [SC, reference compound]”, for which the Kd came to 4.08 ± 0.63 µM.
